The source of these data is paper PMC4527783 (PLoS ONE, 2015).

The target of one experiment is NOP receptor. Conditions: cited from earlier work.
The next experiment has as its system mouse vas deferens. Conditions: isolated mouse vas deferens; cited from earlier work. The text has this: On comparing the data with a wider range of pharmacological assays carried in vitro or in vivo, noticeable discrepancies are only apparent for a number of synthetic peptides that are known as NOP partial agonists. Such divergences are likely explained by the variations in stimulus/response coupling efficiency that characterize different pharmacological preparations. In fact, in accordance with classical receptor theory, the effect of a partial agonist can range from none to an almost full response, depending on the extent of amplification that the sensitivity of the signaling pathway exerts on ... || Also the estimates of antagonist potency derived from BRET analysis were in substantial agreement with similar determinations made in a variety of different pharmacological studies. […] We found, however, that a 3-fold increase in ...

Experiment [1] has as its target Human NOP Rluc-tagged fusion protein (N/OFQ peptide receptor fused to Renilla luciferase) (human) (UniProt P41146).

Human NOP Rluc-tagged fusion protein (N/OFQ peptide receptor fused to Renilla luciferase) (human), sequence (P41146 whole entry, the tested form may be a part): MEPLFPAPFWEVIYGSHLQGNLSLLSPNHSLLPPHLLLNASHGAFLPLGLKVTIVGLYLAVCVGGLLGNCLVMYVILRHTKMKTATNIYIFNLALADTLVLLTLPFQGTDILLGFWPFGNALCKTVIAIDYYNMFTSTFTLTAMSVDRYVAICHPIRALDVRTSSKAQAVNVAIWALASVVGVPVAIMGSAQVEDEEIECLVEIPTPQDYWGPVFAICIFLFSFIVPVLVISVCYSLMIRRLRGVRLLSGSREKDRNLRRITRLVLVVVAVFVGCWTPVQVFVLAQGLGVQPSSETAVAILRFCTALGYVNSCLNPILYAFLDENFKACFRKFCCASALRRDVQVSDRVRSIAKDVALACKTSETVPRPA

With `Cc1cccc2c1CC[C@H](CN1CCC(c3c(Cl)cccc3Cl)CC1)C[C@@H]2O` [SB-612111, (-)-cis-1-methyl-7-[[4-(2,6-dichlorophenyl)piperidin-1-yl]methyl]-6,7,8,9-tetrahy dro-5H-benzocyclohepten-5-ol], on NOP receptor, the “antagonist potency estimate (pKB), [^35S]GTPγS binding” value is 9.70. Also, in the experiment with mouse vas deferens, the “reversibility of antagonist action on washing” value is on record as “remains unchanged even after 3 hours of repeated washing”.

UFP-101 (peptide): the pA2, rightward shift of the concentration-response curve of N/OFQ for arrestin coupling (BRET, whole cells); value as the sentence prints it, differs from Table 3 (pA2 (-log10 M)) in experiment [1] is 9.42.
